In the NIST ThermoML archive (doi:10.1016/j.jct.2010.02.009):
Several values for one entry are separate records, joined by “and”; a condition that tells them apart may be missing. Identical values can stand only once. Numbers after ± are expanded uncertainties.

Columns and labels:
[1] = heat capacity at constant pressure per volume; xn = mol fraction of the nth substance listed; settings: 101 kPa, Liquid, Large sample (1 g) DSC, x1 = 0.497
[2] = refractive index (other wavelength) (dimensionless); xn = mol fraction of the nth substance listed; settings: 101 kPa, Liquid, Wavelength=632.8 nm, Standard Abbe refractometry

N#Cc1ccccc1 [benzonitrile] + CCCCCCCCC
[1]
Settings	heat capacity
278.51 K	1795700 ± 36000 J/K/m3
279.06 K	1803600 ± 36000 J/K/m3
279.55 K	1808700 ± 36000 J/K/m3
280 K	1811600 ± 36000 J/K/m3
280.41 K	1816400 ± 36000 J/K/m3
280.77 K	1824500 ± 36000 J/K/m3
281.11 K	1829200 ± 37000 J/K/m3
281.41 K	1830500 ± 37000 J/K/m3
281.68 K	1829700 ± 37000 J/K/m3
281.93 K	1835700 ± 37000 J/K/m3
282.15 K	1841800 ± 37000 J/K/m3
282.35 K	1845300 ± 37000 J/K/m3
282.53 K	1847600 ± 37000 J/K/m3
282.7 K	1849700 ± 37000 J/K/m3
282.85 K	1856600 ± 37000 J/K/m3
282.98 K	1859600 ± 37000 J/K/m3
283.1 K	1862200 ± 37000 J/K/m3
283.21 K	1866700 ± 37000 J/K/m3
283.31 K	1869700 ± 37000 J/K/m3
283.4 K	1868700 ± 37000 J/K/m3
283.49 K	1873100 ± 38000 J/K/m3
283.56 K	1868300 ± 37000 J/K/m3
283.69 K	1880300 ± 38000 J/K/m3
283.88 K	1913600 ± 38000 J/K/m3
283.95 K	1908800 ± 38000 J/K/m3
284.03 K	1934300 ± 40000 J/K/m3
284.09 K	1950500 ± 40000 J/K/m3
284.11 K	1960300 ± 40000 J/K/m3
284.12 K	1970200 ± 41000 J/K/m3
284.13 K	1977600 ± 41000 J/K/m3
284.15 K	1985800 ± 42000 J/K/m3
284.16 K	1998500 ± 40000 J/K/m3
284.18 K	2005300 ± 43000 J/K/m3
284.19 K	2006000 ± 43000 J/K/m3
284.2 K	2015800 ± 43000 J/K/m3
284.21 K	2022500 ± 43000 J/K/m3
284.22 K	2037100 ± 44000 J/K/m3
284.23 K	2046300 ± 45000 J/K/m3
284.24 K	2060600 ± 46000 J/K/m3
284.25 K	2071500 ± 46000 J/K/m3
284.26 K	2047100 ± 46000 J/K/m3 [middle of 6 runs]
284.27 K	1937800 ± 46000 J/K/m3 [middle of 5 runs]
284.28 K	1815400 ± 42000 J/K/m3 and 1840700 ± 42000 J/K/m3
284.29 K	1794400 ± 42000 J/K/m3
284.31 K	1776700 ± 44000 J/K/m3
284.33 K	1765400 ± 47000 J/K/m3
284.36 K	1750800 ± 44000 J/K/m3
284.42 K	1731200 ± 35000 J/K/m3
284.5 K	1715800 ± 34000 J/K/m3
284.61 K	1703600 ± 34000 J/K/m3
284.69 K	1698600 ± 34000 J/K/m3
284.79 K	1693000 ± 34000 J/K/m3
284.9 K	1688700 ± 34000 J/K/m3
284.97 K	1686600 ± 34000 J/K/m3
285.12 K	1680400 ± 34000 J/K/m3
285.21 K	1677900 ± 34000 J/K/m3
285.31 K	1676100 ± 34000 J/K/m3
285.43 K	1674300 ± 34000 J/K/m3
285.55 K	1671100 ± 33000 J/K/m3
285.68 K	1668100 ± 33000 J/K/m3
285.83 K	1666100 ± 33000 J/K/m3
286 K	1665000 ± 33000 J/K/m3
286.18 K	1662900 ± 33000 J/K/m3
286.38 K	1659800 ± 33000 J/K/m3
286.6 K	1659100 ± 33000 J/K/m3
286.85 K	1655600 ± 33000 J/K/m3
287.12 K	1655500 ± 33000 J/K/m3
287.42 K	1652700 ± 33000 J/K/m3
287.75 K	1650500 ± 33000 J/K/m3
288.12 K	1649500 ± 33000 J/K/m3
288.53 K	1647700 ± 33000 J/K/m3
288.97 K	1645800 ± 33000 J/K/m3
289.51 K	1644500 ± 33000 J/K/m3
290.01 K	1643400 ± 33000 J/K/m3
290.61 K	1641800 ± 33000 J/K/m3
291.29 K	1641000 ± 33000 J/K/m3
292.03 K	1639400 ± 33000 J/K/m3
292.42 K	1639400 ± 33000 J/K/m3
292.84 K	1638700 ± 33000 J/K/m3
293.28 K	1638100 ± 33000 J/K/m3
293.74 K	1637800 ± 33000 J/K/m3
294.24 K	1637400 ± 33000 J/K/m3
294.74 K	1636900 ± 33000 J/K/m3
295.28 K	1636500 ± 33000 J/K/m3
295.85 K	1636400 ± 33000 J/K/m3
296.45 K	1635800 ± 33000 J/K/m3
297.07 K	1635800 ± 33000 J/K/m3
297.73 K	1635500 ± 33000 J/K/m3
298.41 K	1635100 ± 33000 J/K/m3
299.14 K	1635100 ± 33000 J/K/m3
299.89 K	1634900 ± 33000 J/K/m3
300.7 K	1634900 ± 33000 J/K/m3
301.55 K	1634800 ± 33000 J/K/m3
302.43 K	1635000 ± 33000 J/K/m3
303.36 K	1635100 ± 33000 J/K/m3
304.34 K	1635200 ± 33000 J/K/m3
305.38 K	1635400 ± 33000 J/K/m3
306.45 K	1635600 ± 33000 J/K/m3
307.59 K	1635800 ± 33000 J/K/m3
308.79 K	1636100 ± 33000 J/K/m3
310.05 K	1636600 ± 33000 J/K/m3
311.36 K	1637200 ± 33000 J/K/m3
312.75 K	1637800 ± 33000 J/K/m3
314.12 K	1638500 ± 33000 J/K/m3

[2]
Settings	refractive index
278.24 K, x1 = 1	1.5324 ± 0.0008
279.25 K, x1 = 1	1.5319 ± 0.0008
281.33 K, x1 = 1	1.5308 ± 0.0008
282.96 K, x1 = 1	1.5301 ± 0.0008
284.3 K, x1 = 1	1.5294 ± 0.0008
285.4 K, x1 = 0.0945	1.4145 ± 0.0008
285.4 K, x1 = 0.2042	1.4234 ± 0.0008
285.4 K, x1 = 0.2947	1.4313 ± 0.0008
285.4 K, x1 = 0.3866	1.4402 ± 0.0008
285.4 K, x1 = 0.4969	1.452 ± 0.0008
285.4 K, x1 = 0.5967	1.4642 ± 0.0008
285.4 K, x1 = 0.6844	1.4759 ± 0.0008
285.4 K, x1 = 0.7992	1.4932 ± 0.0008
285.4 K, x1 = 0.865	1.504 ± 0.0008
285.43 K, x1 = 1	1.5288 ± 0.0008
